Experimental data as given in ChEMBL document CHEMBL1201862, “PubChem BioAssay data set” (2004).
One block for each compound: values may come before it. The source made the active and inactive calls. Cut-off read from the data, not from the text of the source, for most assays here: actives have a measured IC50 and inactives only a lower limit.

What was measured:
[1] = target: T1, Sentrin-specific protease 6 (Homo sapiens, UniProt Q9GZR1); assay: SAR Analysis of small molecule inhibitors of Sentrin-specific protease 6 (SENP6) using a Luminescent assay. [Related pubchem assays (depositor defined):AID2582, AID2599]; assay type: functional
T1 sequence (Q9GZR1 whole entry): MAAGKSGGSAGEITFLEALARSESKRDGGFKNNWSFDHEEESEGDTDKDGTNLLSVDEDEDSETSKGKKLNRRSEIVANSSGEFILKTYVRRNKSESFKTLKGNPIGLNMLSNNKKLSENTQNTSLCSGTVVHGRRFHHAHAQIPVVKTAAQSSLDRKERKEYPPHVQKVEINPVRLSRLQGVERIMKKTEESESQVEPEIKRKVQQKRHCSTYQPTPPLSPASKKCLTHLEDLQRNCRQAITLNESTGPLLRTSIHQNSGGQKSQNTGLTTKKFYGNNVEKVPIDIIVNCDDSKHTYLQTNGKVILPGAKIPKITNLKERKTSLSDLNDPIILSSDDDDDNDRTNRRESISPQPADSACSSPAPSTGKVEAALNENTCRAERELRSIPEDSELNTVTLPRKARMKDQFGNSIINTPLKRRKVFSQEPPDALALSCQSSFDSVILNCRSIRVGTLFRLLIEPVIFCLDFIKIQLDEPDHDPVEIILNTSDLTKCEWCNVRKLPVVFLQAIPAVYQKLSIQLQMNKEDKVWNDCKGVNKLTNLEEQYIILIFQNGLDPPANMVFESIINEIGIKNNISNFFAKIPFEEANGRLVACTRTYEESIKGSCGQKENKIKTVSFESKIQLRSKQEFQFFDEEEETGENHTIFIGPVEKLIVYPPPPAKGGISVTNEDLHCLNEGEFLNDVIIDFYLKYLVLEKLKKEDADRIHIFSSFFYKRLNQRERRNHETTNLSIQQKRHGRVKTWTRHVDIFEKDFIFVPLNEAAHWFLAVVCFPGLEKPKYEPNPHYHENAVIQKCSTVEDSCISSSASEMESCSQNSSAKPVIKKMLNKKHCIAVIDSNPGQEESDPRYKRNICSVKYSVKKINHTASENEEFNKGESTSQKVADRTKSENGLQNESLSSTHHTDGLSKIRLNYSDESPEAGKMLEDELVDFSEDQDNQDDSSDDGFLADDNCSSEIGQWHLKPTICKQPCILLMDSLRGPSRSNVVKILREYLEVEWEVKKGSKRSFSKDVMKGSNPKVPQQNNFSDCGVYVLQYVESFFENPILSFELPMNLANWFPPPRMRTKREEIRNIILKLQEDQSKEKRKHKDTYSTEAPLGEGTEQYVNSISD

[2] = target: T2, Sentrin-specific protease 8 (Homo sapiens, UniProt Q96LD8); assay: inhibition of human SENP8 cleavage activity – biochemical, luminescence, SAR follow-up (AID 504501); assay type: functional
T2 sequence (Q96LD8 whole entry): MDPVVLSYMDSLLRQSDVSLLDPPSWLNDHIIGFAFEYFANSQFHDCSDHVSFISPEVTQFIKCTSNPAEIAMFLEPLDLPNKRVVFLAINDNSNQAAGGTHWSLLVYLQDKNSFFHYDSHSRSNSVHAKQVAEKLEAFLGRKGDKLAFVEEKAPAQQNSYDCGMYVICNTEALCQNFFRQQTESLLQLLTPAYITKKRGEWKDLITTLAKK

[3] = target: T3, Sentrin-specific protease 7 (Homo sapiens, UniProt Q9BQF6); assay: inhibition of human SENP7 cleavage activity – biochemical, luminescence, SAR follow-up (AID 504497); assay type: functional
T3 sequence (Q9BQF6 whole entry): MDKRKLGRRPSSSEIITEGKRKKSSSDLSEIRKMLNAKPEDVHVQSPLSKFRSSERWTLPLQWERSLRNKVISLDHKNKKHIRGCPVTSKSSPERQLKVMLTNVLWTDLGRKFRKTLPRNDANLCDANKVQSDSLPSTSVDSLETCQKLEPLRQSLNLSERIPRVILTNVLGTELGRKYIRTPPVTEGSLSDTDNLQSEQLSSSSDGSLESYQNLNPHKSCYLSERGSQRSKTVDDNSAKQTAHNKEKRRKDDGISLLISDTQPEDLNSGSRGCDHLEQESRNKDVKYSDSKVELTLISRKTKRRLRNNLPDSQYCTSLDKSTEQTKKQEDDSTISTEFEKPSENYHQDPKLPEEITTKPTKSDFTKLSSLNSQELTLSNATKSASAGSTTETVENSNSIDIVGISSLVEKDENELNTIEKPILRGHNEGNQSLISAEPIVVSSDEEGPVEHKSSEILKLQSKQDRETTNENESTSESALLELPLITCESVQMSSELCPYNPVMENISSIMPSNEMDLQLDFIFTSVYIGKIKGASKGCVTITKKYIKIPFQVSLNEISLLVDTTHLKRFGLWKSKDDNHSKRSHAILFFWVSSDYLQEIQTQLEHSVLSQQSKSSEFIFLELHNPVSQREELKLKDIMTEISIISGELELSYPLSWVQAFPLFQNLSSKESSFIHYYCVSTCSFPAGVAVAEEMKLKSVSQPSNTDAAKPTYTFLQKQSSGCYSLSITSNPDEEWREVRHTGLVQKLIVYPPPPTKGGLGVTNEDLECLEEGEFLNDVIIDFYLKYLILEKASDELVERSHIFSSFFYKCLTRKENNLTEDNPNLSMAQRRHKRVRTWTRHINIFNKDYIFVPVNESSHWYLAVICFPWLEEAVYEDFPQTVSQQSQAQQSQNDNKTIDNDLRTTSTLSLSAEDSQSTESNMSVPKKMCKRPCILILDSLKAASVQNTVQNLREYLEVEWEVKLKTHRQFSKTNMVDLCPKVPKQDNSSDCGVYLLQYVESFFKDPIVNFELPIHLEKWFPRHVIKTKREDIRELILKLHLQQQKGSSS

[4] = target: T4, Caspase-3 (Homo sapiens, UniProt P42574); assay: SAR Analysis of small molecule inhibitors of Sentrin-specific proteases (SENPs) using a Caspase-3 Selectivity assay. [Related pubchem assays (depositor defined):AID2540, AID2599, AID434973, AID489001]; assay type: functional
T4 sequence (P42574 whole entry): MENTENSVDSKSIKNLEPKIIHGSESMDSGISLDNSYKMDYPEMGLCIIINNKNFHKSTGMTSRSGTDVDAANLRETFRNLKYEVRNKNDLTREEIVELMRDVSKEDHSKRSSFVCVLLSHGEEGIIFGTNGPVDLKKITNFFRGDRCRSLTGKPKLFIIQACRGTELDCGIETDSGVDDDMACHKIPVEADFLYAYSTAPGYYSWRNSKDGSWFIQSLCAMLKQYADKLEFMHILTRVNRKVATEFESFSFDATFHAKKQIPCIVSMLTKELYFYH

[5] = system: INS1; assay: suppression of NO production in INS-1E cells – cell-based, Griess absorbance, dry powder, set 2, dose response (AID 488868); assay type: functional; conditions: Rattus norvegicus
[6] = target: T1, Sentrin-specific protease 6; assay: inhibition of human SENP6 catalytic domain – biochemical, luminescence, set 2, SAR follow-up (AID 588598); assay type: functional
[7] = target: T3, Sentrin-specific protease 7; assay: inhibition of human SENP7 cleavage activity – biochemical, luminescence, set 2, SAR follow-up (AID 588600); assay type: functional
[8] = target: T2, Sentrin-specific protease 8; assay: inhibition of sentrin protease 8 – biochemical, luminescence, set 2, SAR follow-up (AID 588601); assay type: functional
[9] = target: T4, Caspase-3; assay: inhibition of recombinant caspase-3 activity – biochemical, luminescence, set 2, selectivity assay for SENP protease inhibitor project, SAR follow-up (AID 588599); assay type: functional
[10] = system: HEK293; assay: optical interference in Abeta FP readout, dose response, artefact control for IDE activator project, biochemical, fluorescence polarization (AID 588442); assay type: functional, cell-based; conditions: Homo sapiens
[11] = target: T5, Insulin-degrading enzyme (Homo sapiens, UniProt P14735); assay: recombinant IDE activation, cell-free – biochemical, fluorescence polarization, counter-screen for IDE activator project, dose response (AID 588681)
T5 sequence (P14735 whole entry): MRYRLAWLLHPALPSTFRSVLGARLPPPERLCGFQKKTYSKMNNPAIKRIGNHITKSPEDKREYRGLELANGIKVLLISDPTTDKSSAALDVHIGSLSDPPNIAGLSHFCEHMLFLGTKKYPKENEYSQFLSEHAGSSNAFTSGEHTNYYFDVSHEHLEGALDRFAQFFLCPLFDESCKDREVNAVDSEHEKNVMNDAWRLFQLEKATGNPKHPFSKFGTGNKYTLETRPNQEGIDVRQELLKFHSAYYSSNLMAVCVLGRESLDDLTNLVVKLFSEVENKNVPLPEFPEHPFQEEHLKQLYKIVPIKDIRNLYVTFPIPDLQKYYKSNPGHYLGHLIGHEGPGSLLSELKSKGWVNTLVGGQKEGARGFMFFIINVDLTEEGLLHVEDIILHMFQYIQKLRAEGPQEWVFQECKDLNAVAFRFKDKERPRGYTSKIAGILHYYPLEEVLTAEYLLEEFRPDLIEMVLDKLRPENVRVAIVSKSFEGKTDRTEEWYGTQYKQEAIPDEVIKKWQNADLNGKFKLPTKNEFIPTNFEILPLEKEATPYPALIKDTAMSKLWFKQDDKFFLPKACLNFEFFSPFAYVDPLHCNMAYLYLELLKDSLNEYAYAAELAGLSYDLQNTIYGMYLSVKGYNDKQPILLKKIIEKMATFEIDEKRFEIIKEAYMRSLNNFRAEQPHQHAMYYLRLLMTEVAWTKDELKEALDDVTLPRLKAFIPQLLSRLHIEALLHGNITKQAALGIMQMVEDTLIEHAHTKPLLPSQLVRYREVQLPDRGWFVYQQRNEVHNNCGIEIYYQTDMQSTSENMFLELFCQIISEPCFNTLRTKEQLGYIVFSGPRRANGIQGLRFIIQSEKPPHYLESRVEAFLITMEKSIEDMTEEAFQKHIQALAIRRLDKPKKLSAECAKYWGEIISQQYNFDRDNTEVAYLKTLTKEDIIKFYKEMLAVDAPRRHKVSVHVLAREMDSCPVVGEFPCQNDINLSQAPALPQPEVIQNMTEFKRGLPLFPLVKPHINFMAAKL

[12] = Luminescence Cell-Based Dose Retest to Confirm Inhibitors of Cancer Stem Cells. [Related pubchem assays (depositor defined):AID2717, AID2721]; assay type: functional; conditions: Homo sapiens
[13] = system: HEK293; assay: membrane integrity loss in HEK cells – cell-based, fluorescence, cytotoxicity control for IDE activator project, dose response (AID 588440); assay type: functional; conditions: Homo sapiens;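 note: cytotoxicity by LDH release measuring loss of membrane integrity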
[14] = target: T5, Insulin-degrading enzyme; assay: cellular IDE activation of Abeta substrate cleavage – fluorescence polarization, HEK cells, dose response (AID 588439); assay type: functional, cell-based

IC50 [1]: 1.81 µM (active)
IC50 [3]: 1.31 µM (active)
IC50 [4]: 2.27 µM (active)
Structure (SMILES): CCC(=O)Nc1ccc2oc(-c3ccc(Cl)cc3)nc2c1
IC50 [2]: 1.76 µM (active)

Structure (SMILES): C[C@@H]1CN([C@@H](C)CO)C(=O)c2cccc(NC(=O)Nc3cccc4ccccc34)c2O[C@H]1CN(C)S(=O)(=O)c1cccs1
AC50 [5]: 206 µM (active)

IC50 [6]: > 99 µM (inactive)
IC50 [7]: > 99 µM (inactive)
IC50 [9]: > 99 µM (inactive)
Structure (SMILES): O=C1CN(C(=O)C(=O)c2c[nH]c3ccccc23)c2ccccc2N1
IC50 [8]: > 99 µM (inactive)

Structure (SMILES): C=CCN1C(=O)/C(=C2\C(=O)Nc3ccccc32)S/C1=N/c1ccc(O)cc1
EC50 [10]: > 54.7 µM (inactive)
EC50 [11]: > 54.7 µM (inactive)
AC50 [12]: 4.14 µM (active)
IC50 [13]: 26.6 µM (inactive)
EC50 [14]: 16.6 µM (inactive)
